What was measured:
[1] = set-up: method as in PMID 21375264; details: cited from earlier work
[2] = set-up: method as in PMID 21375264; details: acute and chronic toxicity tests in rats; cited from earlier work
[3] = tested on: TNF-α and IL-6 production; set-up: method as in PMID 21375264; details: following oral administration; cited from earlier work
[4] = Log D measurement (1-octanol/PBS); type: physicochemical; details: 1-octanol/PBS (pH = 7.4), room temperature
Procedure: The mixture was shaken for 10 min at room temperature, followed by centrifugation at 10,000 rpm for 10 min. The radioactivity in each phase was measured using a γ counter.

[5] = In vitro stability analysis in mouse plasma; type: in vitro ADME; details: 2 h incubation in mouse plasma at 37 °C, normal-phase TLC
[6] = Biodistribution study after intravenous administration in normal ddY mice; type: in vivo
Procedure: Mice (n = 20, 5 weeks old, 23–29 g) were randomly assigned to five groups (n = 4 each). […] Sample size was limited to four animals per group in adherence to ethical guidelines for the reduction of animal use. Target tissues, including BAT, blood, muscle, bone, brain, heart, lung, stomach, pancreas, spleen, kidneys, liver, and small and large intestines, were excised and weighed, and the radioactivity of each tissue was measured using a γ-counter. The accumulation of radioactivity was expressed as the percentage of the injected dose per gram of tissue (%ID/g) for all tissues except for the stomach, for which it was expressed as the percentage of the injected dose per organ (%ID).

[7] = PET/CT imaging of BAT in normal mouse; type: in vivo, ddY mice
Procedure: A small-animal PET/SPECT/CT scanner (E-Class VECTor^6CT^SD, MILabs, Utrecht, The Netherlands) was used, and it was equipped with a high-efficiency general purpose rat and mouse collimator. After the PET imaging, CT imaging was performed (exposure time: 40 ms, tube voltage: 55 kv, tube current: 0.33 mA). After the CT imaging, the mice were immediately euthanized under anesthesia, their BAT was removed and weighed, and its radioactivity was measured (n = 1). The raw data obtained from the PET scan were reconstructed using the SROSEM method and superimposed onto the CT images. […] The SUVs were then calculated using Amide software 1.0.6 (Slashdot Media, San Francisco, CA, USA).

activated p38α = tested on: activated p38α; set-up: method as in PMID 34410619, PMID 35760973; details: cited from earlier work
[8] = 5 min after i.v. administration
[9] = 15 min after i.v. administration
[10] = 30 min after i.v. administration
[11] = 60 min after i.v. administration
[12] = 120 min after i.v. administration

Cn1c(=O)c(Oc2ccc(F)cc2F)cc2cnc(NC3CCOCC3)nc21 [R1487, 6-(2,4-difluorophenoxy)-8-methyl-2-(tetrahydro-2H-pyran-4-ylamino)pyrido [2,3-d]pyrimidin-7(8H)-one]
clearance route [1]: predominantly hepatic clearance | oral bioavailability ([1]; monkeys, oral administration): 51.6% | half-life in blood ([1]; monkeys): 22.5 h | acceptable tolerability, no severe adverse events [2]: up to 10 mg/kg | production of TNF-α and IL-6 [3]: suppress

Cn1c(=O)c(Oc2ccc([18F])cc2F)cc2cnc(NC3CCOCC3)nc21 [[^18F]R1487, 6-(4-[^18F]fluoro-2-fluorophenoxy)-8-methyl-2-(tetrahydro-2H-pyran-4-ylamino)-pyrido[2,3-d]pyrimidin-7(8H)-one]
logD [4]: 2.2 | radioactivity detected in intact form [5]: more than 96% | Radioactivity in BAT [6, 8]: 16.3 ± 2.7 %ID/g | Radioactivity in Blood [6, 8]: 2.8 ± 0.1 %ID/g | Radioactivity in Bone [6, 8]: 6.4 ± 0.7 %ID/g | Radioactivity in Brain [6, 8]: 2.9 ± 0.5 %ID/g | Radioactivity in Heart [6, 8]: 5.0 ± 0.8 %ID/g | Radioactivity in Kidney [6, 8]: 7.7 ± 1.9 %ID/g | Radioactivity in Large intestine [6, 8]: 2.2 ± 0.7 %ID/g | Radioactivity in Liver [6, 8]: 11.3 ± 1.9 %ID/g | Radioactivity in Lung [6, 8]: 4.0 ± 0.6 %ID/g | Radioactivity in Muscle [6, 8]: 2.7 ± 0.5 %ID/g | Radioactivity in Pancreas [6, 8]: 4.4 ± 0.9 %ID/g | Radioactivity in Small intestine [6, 8]: 5.8 ± 1.0 %ID/g | Radioactivity in Spleen [6, 8]: 4.0 ± 0.9 %ID/g | Radioactivity in Stomach [6, 8]: 1.1 ± 0.2 %ID | Radioactivity in BAT [6, 9]: 8.0 ± 2.6 %ID/g | Radioactivity in Blood [6, 9]: 1.0 ± 0.2 %ID/g | Radioactivity in Bone [6, 9]: 5.1 ± 0.9 %ID/g | Radioactivity in Brain [6, 9]: 1.3 ± 0.6 %ID/g | Radioactivity in Heart [6, 9]: 2.8 ± 0.5 %ID/g | Radioactivity in Kidney [6, 9]: 5.1 ± 1.3 %ID/g | Radioactivity in Large intestine [6, 9]: 2.3 ± 0.4 %ID/g | Radioactivity in Liver [6, 9]: 5.9 ± 1.3 %ID/g | Radioactivity in Lung [6, 9]: 3.2 ± 0.8 %ID/g | Radioactivity in Muscle [6, 9]: 2.4 ± 0.3 %ID/g | Radioactivity in Pancreas [6, 9]: 2.4 ± 0.6 %ID/g | Radioactivity in Small intestine [6, 9]: 8.6 ± 1.9 %ID/g | Radioactivity in Spleen [6, 9]: 4.5 ± 0.8 %ID/g | Radioactivity in Stomach [6, 9]: 1.3 ± 0.5 %ID | Radioactivity in BAT [6, 10]: 5.2 ± 1.1 %ID/g | Radioactivity in Blood [6, 10]: 0.7 ± 0.1 %ID/g | Radioactivity in Bone [6, 10]: 6.7 ± 1.0 %ID/g | Radioactivity in Brain [6, 10]: 1.0 ± 0.6 %ID/g | Radioactivity in Heart [6, 10]: 2.3 ± 0.7 %ID/g | Radioactivity in Kidney [6, 10]: 3.5 ± 0.6 %ID/g | Radioactivity in Large intestine [6, 10]: 4.3 ± 3.7 %ID/g | Radioactivity in Liver [6, 10]: 4.7 ± 0.9 %ID/g | Radioactivity in Lung [6, 10]: 2.3 ± 0.5 %ID/g | Radioactivity in Muscle [6, 10]: 2.1 ± 0.2 %ID/g | Radioactivity in Pancreas [6, 10]: 1.9 ± 0.1 %ID/g | Radioactivity in Small intestine [6, 10]: 16.9 ± 4.0 %ID/g | Radioactivity in Spleen [6, 10]: 3.3 ± 0.5 %ID/g | Radioactivity in Stomach [6, 10]: 1.8 ± 0.4 %ID | Radioactivity in BAT [6, 11]: 2.2 ± 0.6 %ID/g | Radioactivity in Blood [6, 11]: 0.4 ± 0.1 %ID/g | Radioactivity in Bone [6, 11]: 6.9 ± 2.9 %ID/g | Radioactivity in Brain [6, 11]: 0.4 ± 0.2 %ID/g | Radioactivity in Heart [6, 11]: 1.4 ± 0.1 %ID/g | Radioactivity in Kidney [6, 11]: 2.4 ± 0.7 %ID/g | Radioactivity in Large intestine [6, 11]: 4.3 ± 1.6 %ID/g | Radioactivity in Liver [6, 11]: 3.4 ± 0.3 %ID/g | Radioactivity in Lung [6, 11]: 1.3 ±0.2 %ID/g | Radioactivity in Muscle [6, 11]: 1.0 ± 0.1 %ID/g | Radioactivity in Pancreas [6, 11]: 1.0 ± 0.1 %ID/g | Radioactivity in Small intestine [6, 11]: 23.8 ± 3.7 %ID/g | Radioactivity in Spleen [6, 11]: 1.7 ± 0.4 %ID/g | Radioactivity in Stomach [6, 11]: 4.1 ± 2.2 %ID | Radioactivity in BAT [6, 12]: 1.0 ± 0.2 %ID/g | Radioactivity in Blood [6, 12]: 0.2 ± 0.0 %ID/g | Radioactivity in Bone [6, 12]: 8.7 ± 2.3 %ID/g | Radioactivity in Brain [6, 12]: 0.2 ± 0.1 %ID/g | Radioactivity in Heart [6, 12]: 0.7 ± 0.1 %ID/g | Radioactivity in Kidney [6, 12]: 0.7 ± 0.1 %ID/g | Radioactivity in Large intestine [6, 12]: 32.6 ± 8.7 %ID/g | Radioactivity in Liver [6, 12]: 1.8 ± 0.9 %ID/g | Radioactivity in Lung [6, 12]: 0.4 ± 0.1 %ID/g | Radioactivity in Muscle [6, 12]: 0.5 ± 0.0 %ID/g | Radioactivity in Pancreas [6, 12]: 1.0 ± 0.4 %ID/g | Radioactivity in Small intestine [6, 12]: 13.0 ± 3.4 %ID/g | Radioactivity in Spleen [6, 12]: 0.9 ± 0.1 %ID/g | Radioactivity in Stomach [6, 12]: 1.2 ± 0.5 %ID | time of peak radioactivity in BAT ([6]; post-injection): 5 min | mean standardized uptake value (SUV) in the BAT ([7]; PET 10–15 min post-intravenous administration, manual ROI): 4.7 | radioactivity in the excised BAT after PET/CT imaging ([7]; γ counter, immediately after PET/CT imaging, n = 1): 11.6 %ID/g

Cn1c(=O)c(Oc2ccc([77Br])cc2F)cc2cnc(NC3CCOCC3)nc21 [[^77Br]4-BR, 6-(4-[^77Br]bromo-2-fluorophenoxy)-8-methyl-2-(tetrahydro-2H-pyran-4-ylamino)-pyrido[2,3-d]pyrimidin-7(8H)-one]
inflamed site-to-blood ratio (activated p38α; at 2 h): 4.1 | time of peak radioactivity accumulation in inflamed tissues (activated p38α; post-injection): 15 min

Source: publication PMC12030359, “Fluorine-18-Labeled Positron Emission Tomography Probe Targeting Activated p38α: Design, Synthesis, and In Vivo Evaluation in Rodents” (Pharmaceuticals, 2025)
